Assay [1] concerns rat Cyp11B enzyme (rat adrenal mitochondria). The assay is described as follows: CYP11B enzymatic assay (% inhibition at 100 nM) (Biological Example 9). The conditions noted are these: for Biological Example No. 9: CYP11B percent inhibition at 100 nM: 100 nM compound, cortisol by ELISA. Format: biochemical. The gist of the method:
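Sprague Dawley rat adrenal mitochondria were incubated with compound at 100 nM, 0.5 mM NADPH and 0.1 μM 11-deoxycortisol (pH 7.4 Tris buffer) for 60 min at 37 °C. Cortisol was measured by ELISA and corrected by subtracting the no-NADPH background. % inhibition is relative to the no-compound reaction.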
Background: ELISA stands for enzyme-linked immunosorbent assay.

Assay [2] addresses T1, CYP17 (human testicular microsome) (Homo sapiens, UniProt P05093).
T1 construct: using microsomal fraction from human testis (Celsis Cat #S00110) as the enzyme source; tissue Celsis S00110; host or cells: human testis microsomal fraction
T1 sequence (P05093 1-508): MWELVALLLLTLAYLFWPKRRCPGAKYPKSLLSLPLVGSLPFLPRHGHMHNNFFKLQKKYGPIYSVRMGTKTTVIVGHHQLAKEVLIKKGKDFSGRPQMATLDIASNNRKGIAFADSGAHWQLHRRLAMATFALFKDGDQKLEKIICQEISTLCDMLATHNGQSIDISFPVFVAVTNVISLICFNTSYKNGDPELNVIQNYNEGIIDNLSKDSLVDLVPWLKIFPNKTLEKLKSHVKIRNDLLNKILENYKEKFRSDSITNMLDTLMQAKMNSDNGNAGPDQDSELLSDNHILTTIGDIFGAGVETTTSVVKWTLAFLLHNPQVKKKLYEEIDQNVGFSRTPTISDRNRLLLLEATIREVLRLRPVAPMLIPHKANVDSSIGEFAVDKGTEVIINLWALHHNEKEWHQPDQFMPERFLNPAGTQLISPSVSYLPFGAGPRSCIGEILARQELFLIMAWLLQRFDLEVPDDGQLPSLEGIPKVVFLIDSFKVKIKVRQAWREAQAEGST
The experiment in a line: CYP17 enzymatic assay (IC50) (Biological Example 4). Format: biochemical. Particulars: human testicular microsome.

Setting [3] is: DHEA by ELISA, read-out: Biological Example No. 4: CYP17 enzymatic assay IC50.

Where two headings read alike, the source gives them in different places.

Usually IC50 stands for the concentration at which inhibition is half-maximal. As for `CC(=O)NC1CC[C@@]2(C)C(=CCC3C2CC[C@]2(C)C(n4ccnc4)=CCC32)C1` (stereo partly drawn) [Compound 237, N-((10R,13S)-17-(1H-imidazol-1-yl)-10,13-dimethyl-2,3,4,7,8,9,10,11,12,13,14,15-dodecahydro-1H-cyclopenta[a]phenanthren-3-yl)acetamide], the “CYP11B enzymatic assay % inhibition at 100 nM (Biological Example No. 9)” value in assay [1] (compound at 100 nM) is “U (U means the compound had a percent inhibition of greater than or equal to 32%)”. The IC50 in assay [2] (read-out: CYP17 enzymatic assay IC50 (Biological Example No. 4)) was < 11 nM.
Regarding `C[C@]12CC(O)C[C@@H]1CC[C@@H]1[C@@H]2CC[C@]2(C)C(n3ccnc3)=CC[C@@H]12` (stereo partly drawn) [Compound 109, (3aS,5aS)-6-(1H-imidazol-1-yl)-3a,5a-dimethyl-1,2,3,3a,3b,4,5,5a,8,8a,8b,9,10,10a-tetradecahydrodicyclopenta[a,f]naphthalen-2-ol], the “Biological Example No. 9: CYP11B percent inhibition at 100 nM” value in assay [1] is “U (U means the compound had a percent inhibition of greater than or equal to 32%)”. For the same molecule, the IC50 in assay [2] (setting [3]) is < 11 nM.
In the case of `C[C@]12CC[C@H]3[C@@H](CC=C4C[C@@H](O)CC[C@@]43C)C1=CC=C2c1cccnc1` [Compound 79, (3S,10R,13S)-10,13-dimethyl-17-(pyridin-3-yl)-2,3,4,7,8,9,10,11,12,13-decahydro-1H-cyclopenta[a]phenanthren-3-ol], the “Biological Example No. 9: CYP11B percent inhibition at 100 nM” value in assay [1] was “T (T means the compound had a percent inhibition of less than 32% when tested at 100 nM)”. The IC50 in assay [2] (setting [3]) is < 11 nM.

The values are drawn from patent publication US20130252930A1 (BIOMARIN PHARMACEUTICAL INC., priority 2010, published 2013).
